The record followed here is patent US10420734B2, “Method of treating cancer using selective estrogen receptor modulators” (Duke University, priority 2014, dated 2019).

Common to all, as to assay type: cell-based
The target of test [1] is T1, human estrogen receptor alpha (ESR1) (Homo sapiens, UniProt P03372).
T1 construct: expressed in transfected cells; host or cells: SKBR3
T1 sequence (P03372 1-595): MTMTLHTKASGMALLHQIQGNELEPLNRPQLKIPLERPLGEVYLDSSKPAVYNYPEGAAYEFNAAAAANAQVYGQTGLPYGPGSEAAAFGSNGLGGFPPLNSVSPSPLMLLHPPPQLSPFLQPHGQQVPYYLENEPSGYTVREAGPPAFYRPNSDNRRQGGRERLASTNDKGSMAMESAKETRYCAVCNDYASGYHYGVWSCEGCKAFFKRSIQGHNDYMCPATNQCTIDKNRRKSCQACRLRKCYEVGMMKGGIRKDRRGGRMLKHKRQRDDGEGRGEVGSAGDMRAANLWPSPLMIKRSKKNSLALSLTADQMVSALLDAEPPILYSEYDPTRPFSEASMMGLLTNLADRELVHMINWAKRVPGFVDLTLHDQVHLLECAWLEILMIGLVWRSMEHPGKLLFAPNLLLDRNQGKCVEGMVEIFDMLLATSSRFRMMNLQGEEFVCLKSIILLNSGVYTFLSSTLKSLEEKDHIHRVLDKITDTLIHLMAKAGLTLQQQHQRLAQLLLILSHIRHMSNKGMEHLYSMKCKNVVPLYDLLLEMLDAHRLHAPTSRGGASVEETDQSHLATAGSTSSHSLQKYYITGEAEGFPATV
In words: ERE-luciferase reporter assay in transiently transfected SKBR3 cells (ESR1). Here is the method:
(§1) The ability of RAD1901 (FIG. 5A) to modulate the […] estradiol (E2) dependent transcriptional activity of the human estrogen receptor alpha (ESR1) and human estrogen receptor beta (ESR2) was assessed in transiently transfected SKBR3 cells using a synthetic reporter gene. […] For FIG. 5B, SKBR3 cells were plated in phenol red free media supplemented with charcoal stripped FBS (CFS) 24 hours prior to transfection with an ERE-luciferase reporter together with ESR1 or ESR2 expression vectors. 24 hours after transfection, cells were treated with E2 (10 nM) together with RAD1901 (10^−10-10^−6 M) for 24 hours prior to harvest and analysis of luciferase activity normalized to co-transfected β-galactosidase control. […] For FIG. 5D, MCF7 cells were plated in phenol red free media supplemented with CFS 24 hours prior to treatment, and were treated with 10^−9 M E2 as well as with the indicated ligands (10^−11-10^−6 M) on days 1, 4, and 6 of an 8 day proliferation assay. DNA content as assessed by fluorescence was measured as a surrogate for cell proliferation. The relative increase in DNA fluorescence was calculated by normalizing to baseline values detected in a duplicate plate of cells that was harvested on day 1 prior to the initial treatment. […] For FIG. 5F, expression of ESR1 target genes in tumors was analyzed essentially as in (C).
For orientation: Reporter assays use an easily measured gene product as a stand-in for the process of interest.

A further test concerns the target T2, ESR1 (Homo sapiens, UniProt P03372).
T2 sequence (P03372 1-595): T1 sequence (P03372 1-595)
Briefly: ESR1 expression in MCF7 cells (immunoblot, mRNA, MG132 pre-treatment). Here is the method:
Protein expression was analyzed as described (Wittmann et al., (2007) Cancer Res 67 (19):9549-9560) using antibodies purchased from Sigma-Aldrich—A5441 (β-actin) and Santa Cruz Biotechnology—sc-6259 (cytokeratin 18), sc-20680 (lamin A), sc-5546 (α-tubulin) and sc-8005 (ESR1).
Expression of ESR1 and loading control cytokeratin 18 (CK18—FIG. 7A) in whole cell extracts were detected by immunoblot (top). ESR1 levels relative to CK18 were quantitated by densitometry using Adobe Photoshop (bottom). […] ESR1 expression was detected as in FIG. 6A. For FIGS. 6C-6D, LTED MCF7 cells were plated in phenol red free media supplemented with FBS that was stripped of growth factors twice using charcoal. For FIG. 6C, after 48 hours, cells were treated for 24 hours with E2 (10^−7 M) or SERDs (10^−6 M) and ESR1 was analyzed as in FIG. 6A.
Background: A western blot detects proteins with antibodies after separation by electrophoresis.

The subject of the next test is MCF7 cells. In words: MCF7 proliferation in response to E2 or insulin. The conditions noted are these: SERMs and SERDs 10^-6 M, insulin 2×10^-9 M. The method, then: The expression of ESR1 target genes responsive to (FIG. 10A) agonists, (FIG. 10B) primarily SERMs, or (FIG. 10C) SERMs and agonists was analyzed as in FIG. 5. Relative changes of these and additional target genes designed to evaluate dose dependent response to RAD1901 are presented in FIG. 11. Significant target gene regulation (*p<0.05) as compared to the vehicle control was detected by 2 way ANOVA followed by Fisher's LSD (Graphpad Prism 6). […] Triplicate wells of SKBR3 cells were transfected with plasmids expressing ESR1 fused to VP16 together with Gal4DBD alone (control) or Gal4DBD fused to ESR1 interacting peptides noted on the horizontal axis. Cells were then treated with the indicated ESR1 ligands (10^−7 M unless otherwise indicated). Interaction of ESR1 with the Gal4DBD peptide constructs was detected through activation of a Gal4-responsive luciferase reporter construct and was normalized to detected β-galactosidase activity expressed in a constitutive manner using a second vector. Normalized response was expressed as fold increase over the detected level of interaction between Gal4DBD alone and ESR1-VP16 in the absence of ligand (Veh). For FIG. 10E, the effect of SERMs and SERDs (10^−6 M) on the proliferation of MCF7 cells in response to E2 (10^−9 M) or insulin (2×10^−9 M) was evaluated as in FIG. 5. Statistically similar treatments (2-way ANOVA followed by Bonferroni comparison) are indicated by letters. […] The expression of ESR1 target genes responsive to (A) agonists, (B) primarily SERMs, or (C) SERMs and agonists was analyzed using RT qPCR following RNA isolation. mRNA expression was normalized (ΔΔCT analysis) to the similarly detected 36B4 housekeeping. The profiles presented in dendogram format were analyzed with the Ward hierarchical clustering algorithm (JMP 11) using standardized data.

Test [2] addresses T3, human estrogen receptor beta (ESR2) (Homo sapiens, UniProt Q92731).
T3 construct: expressed in transfected cells; host or cells: SKBR3
In words: ERE-luciferase reporter assay in transiently transfected SKBR3 cells (ESR2). The conditions noted are these: ESR2 isoform, E2 10 nM, RAD1901 10^-10-10^-6 M, 24 hours. The method, then: as §1

Each structure is given as a SMILES string.

T3 sequence (Q92731 whole entry): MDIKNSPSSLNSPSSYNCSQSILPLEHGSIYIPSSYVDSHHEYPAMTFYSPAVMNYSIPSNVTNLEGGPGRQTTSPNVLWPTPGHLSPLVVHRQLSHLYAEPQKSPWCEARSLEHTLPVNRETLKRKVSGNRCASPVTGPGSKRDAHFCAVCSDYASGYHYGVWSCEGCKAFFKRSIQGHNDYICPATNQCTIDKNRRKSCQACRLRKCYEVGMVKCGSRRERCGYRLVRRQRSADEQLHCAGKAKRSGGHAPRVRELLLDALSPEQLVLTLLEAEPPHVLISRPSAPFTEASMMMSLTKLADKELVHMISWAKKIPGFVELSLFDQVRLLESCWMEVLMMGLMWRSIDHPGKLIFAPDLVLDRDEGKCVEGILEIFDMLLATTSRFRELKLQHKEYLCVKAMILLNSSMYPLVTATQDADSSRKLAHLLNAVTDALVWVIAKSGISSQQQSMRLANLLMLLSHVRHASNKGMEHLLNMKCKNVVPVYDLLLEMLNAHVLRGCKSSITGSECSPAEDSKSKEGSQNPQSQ

On to `CCNCCc1ccc(CN(CC)c2cc(OC)ccc2[C@@H]2CCc3cc(O)ccc3C2)cc1` [RAD1901, (R)-6-{2-{ethyl[4-(2-ethylaminoethyl)benzyl]amino}-4-methoxyphenyl}-5,6,7,8-tetrahydronaphthalen-2-ol], for which the “more potent inhibitor of ESR1 than of ESR2” value in test [1] (ERE-luciferase reporter) was 100 fold. Also, the “inhibition of E2-dependent activation of an ERE-luciferase reporter” value in test [1] (ESR1 isoform, E2 10 nM, RAD1901 10^-10-10^-6 M, 24 hours) was “effectively inhibited”; in test [2], “effectively inhibited”. Also, the “ESR1 mRNA expression” value at ESR1 is “no effect”. The “ESR1 expression (immunoblot)” value at ESR1 (24 hours, RAD1901 10^-11-10^-5 M) was “significantly downregulated”. In addition, the “downregulation of ESR1 after pre-treatment with proteasome inhibitor MG132” value at ESR1 (MG132 1 hour pre-treatment, 6 hours ligand) was “completely blocked”. The insulin-stimulated proliferation entry with MCF7 cells is recorded as “without effect”.
